The values below come from patent US4677108A, “4-oxo-pyrido[2,3-d]pyrimidinone derivatives” (Warner-Lambert Company, priority 1984, dated 1987).

Molecules are shown by their SMILES.

The subject of data set [1] is a. coronaria (arteria coronaria). Description: Isolated smooth muscle: inhibition of K+-depolarization contraction of vessel rings, a. coronaria. Set-up: species or system rabbit. The conditions noted are these: organ bath, mean diameter 0.5-1.0 mm, read-out: Concentration (IC50) effecting a semimaximal inhibition of the K+-depolarization contraction of vessel rings, a. coronaria. From the text:
(§1) Of rabbits (vessel ring segments, a basilaris, a. coronaria, a. saphena) are mounted in an organ bath in a way to allow the measurement of isometric contractions. Contractile activity is elicited by a potassium depolarization in Tyrode's solution. This experimetnal set-up is a well known standard model for the identification of substances blocking the calcium channels opened during the potassium depolarization (Fleckenstein,Calcium Antagonism in Heart and Smooth Muscle, J. Wiley & Sons, 1983).
(§2) Concentrations (IC50, mol/l) of compounds
(§3) effecting a semimaximal inhibition of the K+-
(§4) depolarization contraction of vessel rings in the
(§5) organ bath. A. bas. = arteria basilaris, a. cor. =
(§6) arteria coronaria, a. saph. = arteria saphena of
(§7) the rabbit; mean diameter 0.5-1.0 mm.

For data set [2], the system named is a. basilaris (arteria basilaris). Kind of data set: Isolated smooth muscle: inhibition of K+-depolarization contraction of vessel rings, a. basilaris. Set-up: species or system rabbit. Conditions: organ bath, mean diameter 0.5-1.0 mm, read-out: Concentration (IC50) effecting a semimaximal inhibition of the K+-depolarization contraction of vessel rings, a. basilaris.
From the text: as §1, §2, §3, §4, §5, §6, §7

The subject of data set [3] is isolated papillary muscles of the guinea-pig. Description: Isolated papillary muscles: changes in the contraction amplitude. Conditions: field excitation 250/minute; for activation at 1 µM: at ED100, read-out: Δ% (percent change of contraction amplitude versus control) at ED100; for EC100: read-out: ED100 (effective concentration, maximal effect), contraction amplitude; for EC50: read-out: ED50 (effective concentration, semimaximal effect), contraction amplitude. From the text:
Papillary muscles from the left ventricle of the guinea-pig are mounted, like isolated vessels, in an organ bath in a way to allow the measurement of isometric contractions. Electric excitation is achieved by means of field excitation at a frequency of 250/minute (duration of excitation 10 msec., amplitude supramaximal).
Changes in the contraction amplitude of isolated
papillary muscles of the guinea-pig (excitation
frequency 250/minute, duration of excitation 10 msec.,
excitation amplitude 10-20 V field excitation). IC =
inhibition concentration, ED = effective concentration
in mol/l. Indices 50 and 100 correspond to semi-
maximal and maximal effect. Δ% = percent change of
contraction amplitude versus control.

The subject of data set [4] is a. saphena (arteria saphena). Description: Isolated smooth muscle: inhibition of K+-depolarization contraction of vessel rings, a. saphena. Set-up: species or system rabbit. Conditions: Oryctolagus cuniculus, organ bath, mean diameter 0.5-1.0 mm, read-out: Concentration (IC50) effecting a semimaximal inhibition of the K+-depolarization contraction of vessel rings, a. saphena.
From the text: as §1, §2, §3, §4, §5, §6, §7

The test system of data set [5] is spontaneously hypertensive rats (SHR). Description: Spontaneously hypertensive rat: systolic blood pressure after oral administration. The data set is classed as in vivo. An excerpt: This test model employing hypertension of genetic origin served to test Example Number 1(a) for its antihypertensive efficacy.
Effect of Example Number 1a on the systolic blood
pressure of spontaneously hypertensive rats (SHR)

Data set [6] relates to rats anesthetized with inactin. Description: Anesthetized rat (inactin): blood pressure and heart rate. The data set is classed as in vivo. Conditions: 100 mg/kg ID (n=3). The method, then:
This test model using rats anesthetized with inactin served to test Example Number 1a in a dosage of 100 mg/kg ID (n=3). The heart rate remained unchanged whereas the blood pressure fell by 40% below the starting value (75 minutes PA).

[7] abbreviates: Cavia porcellus, 10 msec., 10-20 V, maximal effect.
The mark [8] stands for this setting: Cavia porcellus, 10 msec., 10-20 V, semimaximal effect.

Regarding `CCOC(=O)C1=C(C)Nc2ncn(C(C)C)c(=O)c2C1c1ccccc1` (racemic) [Example 3a, (±)-3,4,5,8-Tetrahydro-3-isopropyl-7-methyl-4-oxo-5-phenyl-pyrido[2,3-d]pyrimidine-6-carboxylic acid ethyl ester], the results for the IC50 in data set [1] and in data set [2] were 0.045 µM and 0.04 µM, respectively.
Turning to `CCOC(=O)C1=C(C)Nc2nc[nH]c(=O)c2C1c1ccccc1[N+](=O)[O-]` (racemic) [Example 1b, (±)-3,4,5,8-Tetrahydro-7-methyl-5-(2-nitrophenyl)-4-oxo-pyrido[2,3-d]pyrimidine-6-carboxylic acid ethyl ester], the IC50 in data set [1] was approximately 1 µM; in data set [2], approximately 0.4 µM.
`CCOC(=O)C1=C(C)Nc2nc[nH]c(=O)c2C1c1ccccc1F` (racemic) [Example 1a, (±)-5-(2-Fluorophenyl)-3,4,5,8-tetrahydro-7-methyl-4-oxo-pyrido[2,3-d]pyrimidine-6-carboxylic acid ethyl ester]: the IC50 in data set [1] came out at 1.5 µM; in data set [2], 1.8 µM; in data set [4], 1.2 µM. Besides, in data set [3] (Cavia porcellus), the activation at 1 µM came to 52%. Also, the EC100 in data set [3] (setting [7]) amounted to 1 µM. Moreover, in data set [3] (setting [8]), the EC50 was 0.015 µM. Besides, in data set [3], the “Δ% (percent change of contraction amplitude versus control) at ED50” value is recorded as “+26%”. Also, the “Change of systol. blood pressure in percent” value (shortened to “Change … in percent”) is -11% in data set [5] (12.5 mg/kg oral, 30 min.); -4% in data set [5] (12.5 mg/kg oral, 120 min.); “+2%” in data set [5] (12.5 mg/kg oral, 240 min.); -1% in data set [5] (12.5 mg/kg oral, 24 h); -24% in data set [5] (25 mg/kg oral, 30 min.); -2% in data set [5] (25 mg/kg oral, 120 min.). The “Change … in percent” value in data set [5] (25 mg/kg oral, 240 min.) is given as -1%; in data set [5] (25 mg/kg oral, 24 h) it was “+5%”; in data set [5] (50 mg/kg oral, 30 min.), -32%; in data set [5] (50 mg/kg oral, 120 min.), -8%; in data set [5] (50 mg/kg oral, 240 min.), “+1%”; in data set [5] (50 mg/kg oral, 24 h), “+4%”. In addition, the “Change … in percent” value in data set [5] (100 mg/kg oral, 30 min.) was -40%; in data set [5] (100 mg/kg oral, 120 min.) it was -19%; in data set [5] (100 mg/kg oral, 240 min.), “+2%”; in data set [5] (100 mg/kg oral, 24 h), -4%. Besides, in data set [5] (oral, result in words), the “antihypertensive effect after oral administration” value was “good and, dose-dependent, lasting antihypertensive effect”. Further, the heart rate result in data set [6] was “unchanged”. Besides, the “blood pressure fell below the starting value” in data set [6] (75 minutes PA) was found to be 40%.
Consider `CCOC(=O)C1=C(C)Nc2nc[nH]c(=O)c2C1c1ccccc1` (racemic) [Example 1, (±)-3,4,5,8-Tetrahydro-7-methyl-4-oxo-5-phenylpyrido[2,3-d]pyrimidine-6-carboxylic acid ethyl ester], for which the IC50 in data set [1] is 10 µM; in data set [3] (Cavia porcellus, 10 msec., 10-20 V, semimaximal effect, read-out: IC50 (inhibition concentration, semimaximal effect), contraction amplitude), 20 µM; in data set [2] it was 8 µM; in data set [4] it was 7 µM. Also, the inhibition at 100 µM in data set [3] (Cavia porcellus, at IC100, read-out: Δ% (percent change of contraction amplitude versus control) at IC100) was determined as 27%. In data set [3] (Cavia porcellus, 10 msec., 10-20 V, maximal effect, read-out: IC100 (inhibition concentration, maximal effect), contraction amplitude), the IC100 worked out at 100 µM. Moreover, in data set [3] (at IC50), the “Δ% (percent change of contraction amplitude versus control) at IC50” value is -13%.
Consider `CCOC(=O)C1=C(C)Nc2ncn(C(C)C)c(=O)c2C1c1ccccc1F` (racemic) [Example 3, (±)-5-(2-Fluorophenyl)-3,4,5,8-tetrahydro-3-isopropyl-7-methyl-4-oxo-pyrido[2,3-d]pyrimidine-6-carboxylic acid ethyl ester], for which the IC50 in data set [1] was 20 µM; in data set [2] it was 20 µM; in data set [4], 9 µM. In addition, the activation at 1 µM in data set [3] (Cavia porcellus) was determined as 30%. In addition, the EC100 in data set [3] (setting [7]) amounted to 1 µM. The EC50 in data set [3] (setting [8]) is 0.022 µM. The “Δ% (percent change of contraction amplitude versus control) at ED50” value in data set [3] is recorded as “+15%”.
